According to patent US9340590B2 (priority 2011, dated 2016):
Where two headings read alike, the source gives them in different places. Positions of bridges follow the written chain, without caps; N, C: chain ends. Non-standard residues stand in square brackets, D forms with d. Residues, ends and D or L forms follow the SMILES beside them. Lys(Me2) = CN(C)CCCC[C@H](N)C(=O)O

Legend:
Experiment in all cases: cell-based
[1] = biological target: T1, hNav1.7 (Homo sapiens, UniProt Q15858); conditions: Nav1.7 Use IC50
[2] = biological target: T2, hNav1.5 (Homo sapiens, UniProt Q14524)
[3] = biological target: hNav1.3 (Homo sapiens, UniProt Q9NY46); conditions: IonWorks Quattro, read-out: IWQ Use Nav1.3
[4] = biological target: T2, hNav1.5; conditions: IonWorks Quattro, read-out: IWQ Use Nav1.5
[5] = biological target: T1, hNav1.7; format: cell-based
[6] = clamped to −110 mV, depolarized to −10 mV, 5 min after compound, n=2
[7] = IonWorks Quattro, clamped to −110 mV, depolarized to −10 mV, 5 min after compound, n=2, read-out: IWQ Use Nav1.7

Chain of hNav1.3 (Q9NY46 whole entry, looked up): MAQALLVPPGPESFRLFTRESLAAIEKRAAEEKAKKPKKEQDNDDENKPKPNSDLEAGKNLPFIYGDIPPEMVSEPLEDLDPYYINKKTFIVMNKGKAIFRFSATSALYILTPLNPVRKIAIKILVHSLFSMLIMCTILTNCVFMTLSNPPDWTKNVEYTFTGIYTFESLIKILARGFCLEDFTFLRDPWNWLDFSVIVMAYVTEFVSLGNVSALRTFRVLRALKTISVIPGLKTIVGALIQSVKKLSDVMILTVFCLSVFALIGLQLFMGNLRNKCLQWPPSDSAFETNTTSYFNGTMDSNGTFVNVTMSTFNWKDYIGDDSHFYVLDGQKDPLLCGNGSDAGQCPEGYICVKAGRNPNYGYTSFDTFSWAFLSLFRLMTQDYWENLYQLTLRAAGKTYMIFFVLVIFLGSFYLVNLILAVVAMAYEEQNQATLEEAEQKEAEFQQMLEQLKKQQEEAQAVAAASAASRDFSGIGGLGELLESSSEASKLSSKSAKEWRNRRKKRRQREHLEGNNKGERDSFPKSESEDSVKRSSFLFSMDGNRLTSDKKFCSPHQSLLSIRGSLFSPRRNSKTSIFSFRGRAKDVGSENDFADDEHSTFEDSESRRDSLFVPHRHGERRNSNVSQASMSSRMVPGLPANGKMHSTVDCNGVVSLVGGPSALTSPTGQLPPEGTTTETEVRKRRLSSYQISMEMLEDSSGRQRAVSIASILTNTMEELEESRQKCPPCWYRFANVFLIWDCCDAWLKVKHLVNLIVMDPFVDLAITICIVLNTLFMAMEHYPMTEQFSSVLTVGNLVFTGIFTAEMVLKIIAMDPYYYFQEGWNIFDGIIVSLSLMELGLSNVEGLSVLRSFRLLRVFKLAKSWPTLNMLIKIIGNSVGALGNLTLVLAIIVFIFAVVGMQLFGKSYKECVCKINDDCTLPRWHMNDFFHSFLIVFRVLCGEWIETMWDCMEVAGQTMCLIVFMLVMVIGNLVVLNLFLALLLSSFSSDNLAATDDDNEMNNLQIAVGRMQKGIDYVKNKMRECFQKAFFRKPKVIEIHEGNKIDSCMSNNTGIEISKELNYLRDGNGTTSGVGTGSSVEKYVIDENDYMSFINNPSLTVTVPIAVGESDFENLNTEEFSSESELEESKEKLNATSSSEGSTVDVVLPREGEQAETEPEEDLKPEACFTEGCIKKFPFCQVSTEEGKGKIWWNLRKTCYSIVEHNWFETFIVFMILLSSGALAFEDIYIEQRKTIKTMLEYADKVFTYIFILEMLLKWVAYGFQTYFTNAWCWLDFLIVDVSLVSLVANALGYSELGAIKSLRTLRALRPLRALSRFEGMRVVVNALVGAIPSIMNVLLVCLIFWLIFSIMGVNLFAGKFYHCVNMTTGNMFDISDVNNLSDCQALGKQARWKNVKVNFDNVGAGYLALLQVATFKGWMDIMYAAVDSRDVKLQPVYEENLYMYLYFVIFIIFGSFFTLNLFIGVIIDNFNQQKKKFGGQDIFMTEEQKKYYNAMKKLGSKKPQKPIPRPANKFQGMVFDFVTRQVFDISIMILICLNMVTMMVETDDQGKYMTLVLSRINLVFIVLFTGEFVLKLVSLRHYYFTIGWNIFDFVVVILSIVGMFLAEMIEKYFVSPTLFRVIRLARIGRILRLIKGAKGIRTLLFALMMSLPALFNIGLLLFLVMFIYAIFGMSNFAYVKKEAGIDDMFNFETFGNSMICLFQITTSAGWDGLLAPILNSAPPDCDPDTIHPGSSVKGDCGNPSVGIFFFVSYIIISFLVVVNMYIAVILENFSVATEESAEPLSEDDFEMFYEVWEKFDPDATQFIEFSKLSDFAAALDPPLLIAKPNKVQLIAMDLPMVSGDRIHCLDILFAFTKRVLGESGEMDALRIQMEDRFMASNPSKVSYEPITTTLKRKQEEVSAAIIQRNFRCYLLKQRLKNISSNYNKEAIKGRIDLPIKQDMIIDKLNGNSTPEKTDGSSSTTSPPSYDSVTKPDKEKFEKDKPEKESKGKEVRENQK
T1 sequence (Q15858 whole entry, looked up): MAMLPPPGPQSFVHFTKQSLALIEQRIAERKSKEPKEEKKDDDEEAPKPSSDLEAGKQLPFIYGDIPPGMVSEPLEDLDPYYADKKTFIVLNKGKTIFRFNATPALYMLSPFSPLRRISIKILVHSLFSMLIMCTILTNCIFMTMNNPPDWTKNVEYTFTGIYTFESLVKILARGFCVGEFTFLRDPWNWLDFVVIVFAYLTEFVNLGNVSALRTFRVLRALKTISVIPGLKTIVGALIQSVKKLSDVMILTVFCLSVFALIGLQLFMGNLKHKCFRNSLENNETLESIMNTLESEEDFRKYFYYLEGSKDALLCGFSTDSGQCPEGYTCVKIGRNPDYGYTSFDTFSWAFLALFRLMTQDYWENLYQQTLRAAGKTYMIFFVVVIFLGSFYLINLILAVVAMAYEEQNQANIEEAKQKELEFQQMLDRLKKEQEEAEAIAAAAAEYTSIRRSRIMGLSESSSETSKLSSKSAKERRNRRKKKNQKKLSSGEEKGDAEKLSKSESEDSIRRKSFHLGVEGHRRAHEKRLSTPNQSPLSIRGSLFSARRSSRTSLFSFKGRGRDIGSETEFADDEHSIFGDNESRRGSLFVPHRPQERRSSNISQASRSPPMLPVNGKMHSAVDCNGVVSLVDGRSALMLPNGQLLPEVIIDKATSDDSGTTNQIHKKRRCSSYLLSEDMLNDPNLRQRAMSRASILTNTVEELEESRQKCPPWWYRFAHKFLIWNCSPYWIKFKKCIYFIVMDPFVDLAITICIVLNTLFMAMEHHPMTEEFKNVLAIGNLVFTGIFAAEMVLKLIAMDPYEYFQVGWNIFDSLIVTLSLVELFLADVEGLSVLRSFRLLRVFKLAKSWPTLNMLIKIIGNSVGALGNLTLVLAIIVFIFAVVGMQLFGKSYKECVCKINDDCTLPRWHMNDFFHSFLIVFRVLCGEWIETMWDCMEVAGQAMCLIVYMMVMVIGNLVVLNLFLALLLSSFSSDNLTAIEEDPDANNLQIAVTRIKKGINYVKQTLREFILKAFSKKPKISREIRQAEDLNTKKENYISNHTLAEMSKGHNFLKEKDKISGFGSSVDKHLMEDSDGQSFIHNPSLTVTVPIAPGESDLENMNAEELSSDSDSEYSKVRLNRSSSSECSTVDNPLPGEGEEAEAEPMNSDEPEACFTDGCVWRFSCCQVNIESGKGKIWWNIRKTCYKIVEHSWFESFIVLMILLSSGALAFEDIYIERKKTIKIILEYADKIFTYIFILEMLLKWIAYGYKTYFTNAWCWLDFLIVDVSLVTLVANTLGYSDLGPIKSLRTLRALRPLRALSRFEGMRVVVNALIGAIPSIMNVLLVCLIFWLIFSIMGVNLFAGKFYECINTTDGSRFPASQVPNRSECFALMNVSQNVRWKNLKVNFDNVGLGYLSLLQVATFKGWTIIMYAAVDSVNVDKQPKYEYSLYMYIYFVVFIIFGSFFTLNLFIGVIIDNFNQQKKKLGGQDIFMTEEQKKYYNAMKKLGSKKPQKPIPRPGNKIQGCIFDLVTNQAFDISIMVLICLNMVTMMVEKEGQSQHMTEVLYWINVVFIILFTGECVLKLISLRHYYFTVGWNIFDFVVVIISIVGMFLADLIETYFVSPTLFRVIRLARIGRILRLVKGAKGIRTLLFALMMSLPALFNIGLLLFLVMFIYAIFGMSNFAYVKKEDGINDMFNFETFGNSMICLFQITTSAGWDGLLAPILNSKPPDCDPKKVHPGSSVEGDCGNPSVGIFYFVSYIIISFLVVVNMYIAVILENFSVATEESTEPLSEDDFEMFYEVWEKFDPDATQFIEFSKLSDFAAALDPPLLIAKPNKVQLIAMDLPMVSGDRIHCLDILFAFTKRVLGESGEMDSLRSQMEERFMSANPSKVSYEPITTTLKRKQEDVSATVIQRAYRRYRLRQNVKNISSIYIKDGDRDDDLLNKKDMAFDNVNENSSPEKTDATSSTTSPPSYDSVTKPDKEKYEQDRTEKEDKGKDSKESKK

`CC[C@H](C)[C@@H]1NC(=O)[C@@H]2CSSC[C@@H]3NC(=O)[C@H](C(C)C)NC(=O)[C@H](CC(C)C)NC(=O)[C@H](CC(N)=O)NC(=O)[C@@H]4CCCN4C(=O)[C@H](CCCNC(=N)N)NC(=O)[C@H](CSSC[C@H](NC(=O)[C@@H](N)CC(=O)O)C(=O)N[C@@H](CCC(=O)O)C(=O)NCC(=O)N[C@@H](Cc4ccccc4)C(=O)N[C@@H](CCSC)C(=O)N[C@@H](CCCNC(=N)N)C(=O)N[C@@H](CCCCN)C(=O)N2)NC(=O)[C@H](CSSC[C@@H](C(=O)N[C@@H](CCCCN)C(=O)N[C@@H](Cc2ccc(O)cc2)C(=O)N[C@H](C(=O)N[C@@H](Cc2ccccc2)C(N)=O)C(C)C)NC(=O)[C@H](Cc2c[nH]c4ccccc24)NC(=O)[C@H](CCCCN)NC(=O)[C@H](Cc2cnc[nH]2)NC(=O)[C@H]([C@@H](C)O)NC(=O)[C@H](CCCNC(=N)N)NC(=O)[C@H](CO)NC3=O)NC(=O)[C@H](CCCCN)NC(=O)[C@H](CC(=O)O)NC(=O)[C@H](CC(N)=O)NC(=O)[C@H](CC(=O)O)NC(=O)[C@@H]2CCCN2C1=O` [SEQ ID NO: 19] (H-DCEGFMRKCIPDNDKCCRPNLVCSRTHKWCKYVF-NH2; disulfide 2-17, 9-23, 16-30) gave an IC50 [1] of 41 nM, an IC50 [2] of over 10 µM and an IC50 [3, 6] of 830 nM. The IC50 [4, 6] was 10.5 µM.
`CC[C@H](C)[C@@H]1NC(=O)[C@@H]2CSSC[C@@H]3NC(=O)[C@H](C(C)C)NC(=O)[C@H](CC(C)C)NC(=O)[C@H](CC(N)=O)NC(=O)[C@@H]4CCCN4C(=O)[C@H](CCCNC(=N)N)NC(=O)[C@H](CSSC[C@H](NC(=O)[C@@H](N)CC(=O)O)C(=O)N[C@@H](CC(C)C)C(=O)NCC(=O)N[C@@H](Cc4ccccc4)C(=O)N4CCC[C@H]4C(=O)N[C@@H](CCCNC(=N)N)C(=O)N[C@@H](CCCCN)C(=O)N2)NC(=O)[C@H](CSSC[C@@H](C(=O)N[C@@H](CCCCN)C(=O)N[C@@H](Cc2ccc(O)cc2)C(=O)N[C@H](C(=O)N[C@@H](Cc2ccccc2)C(N)=O)C(C)C)NC(=O)[C@H](Cc2c[nH]c4ccccc24)NC(=O)[C@H](CCCCN)NC(=O)[C@H](Cc2c[nH]cn2)NC(=O)[C@H]([C@@H](C)O)NC(=O)[C@H](CCCNC(=N)N)NC(=O)[C@H](CO)NC3=O)NC(=O)[C@H](CCCCN)NC(=O)[C@H](CC(=O)O)NC(=O)[C@H](CC(N)=O)NC(=O)[C@H](CC(=O)O)NC(=O)[C@@H]2CCCN2C1=O` [SEQ ID NO: 283] (H-DCLGFPRKCIPDNDKCCRPNLVCSRTHKWCKYVF-NH2; disulfide 2-17, 9-23, 16-30) gave an IC50 [5, 7] of 790 nM, an IC50 [1] of 42 nM and an IC50 [2] of 10 µM. It also gave an IC50 [3, 6] of 760 nM and an IC50 [4, 6] of 10 µM.
`CC[C@H](C)[C@@H]1NC(=O)[C@@H]2CSSC[C@@H]3NC(=O)[C@H](C(C)C)NC(=O)[C@H](CC(C)C)NC(=O)[C@H](CC(N)=O)NC(=O)[C@@H]4CCCN4C(=O)[C@H](CCCNC(=N)N)NC(=O)[C@H](CSSC[C@H](NC(=O)[C@H](CC(=O)O)NC(=O)[C@H](C)N)C(=O)N[C@@H](CC(C)C)C(=O)NCC(=O)N[C@@H](Cc4ccccc4)C(=O)N[C@@H](CCSC)C(=O)N[C@@H](CCCNC(=N)N)C(=O)N[C@@H](CCCCN)C(=O)N2)NC(=O)[C@H](CSSC[C@@H](C(=O)N[C@@H](CCCCN)C(=O)N[C@@H](Cc2ccc(O)cc2)C(=O)N[C@H](C(=O)N[C@@H](Cc2ccccc2)C(N)=O)C(C)C)NC(=O)[C@H](Cc2c[nH]c4ccccc24)NC(=O)[C@H](CCCCN)NC(=O)[C@H](Cc2c[nH]cn2)NC(=O)[C@H]([C@@H](C)O)NC(=O)[C@H](CCCNC(=N)N)NC(=O)[C@H](CO)NC3=O)NC(=O)[C@H](CCCCN)NC(=O)[C@H](CC(=O)O)NC(=O)[C@H](CC(N)=O)NC(=O)[C@H](CC(=O)O)NC(=O)[C@@H]2CCCN2C1=O` [SEQ ID NO: 100] was tested, and the IC50 ([5]; read-out: IWQ Use Nav1.7) was 370 nM, the IC50 [1] was 12 nM and the IC50 [2] was 10 µM. It also gave an IC50 [3, 6] of 320 nM and an IC50 [4, 6] of 19.6 µM.
`CC[C@H](C)[C@@H]1NC(=O)[C@@H]2CSSC[C@@H]3NC(=O)[C@H](C(C)C)NC(=O)[C@H](CC(C)C)NC(=O)[C@H](CC(N)=O)NC(=O)[C@@H]4CCCN4C(=O)[C@H](CCCNC(=N)N)NC(=O)[C@H](CSSC[C@H](NC(=O)[C@@H](N)CC(=O)O)C(=O)N[C@@H](CC(C)C)C(=O)NCC(=O)N[C@@H](Cc4ccccc4)C(=O)N[C@@H](CCSC)C(=O)N[C@@H](CCC(=O)O)C(=O)N[C@@H](CCCCN)C(=O)N2)NC(=O)[C@H](CSSC[C@@H](C(=O)N[C@@H](CCCCN)C(=O)N[C@@H](Cc2ccc(O)cc2)C(=O)N[C@H](C(=O)N[C@@H](Cc2ccccc2)C(N)=O)C(C)C)NC(=O)[C@H](Cc2c[nH]c4ccccc24)NC(=O)[C@H](CCCCN)NC(=O)[C@H](Cc2cnc[nH]2)NC(=O)[C@H]([C@@H](C)O)NC(=O)[C@H](CCCNC(=N)N)NC(=O)[C@H](CO)NC3=O)NC(=O)[C@H](CCCCN)NC(=O)[C@H](CC(=O)O)NC(=O)[C@H](CC(N)=O)NC(=O)[C@H](CC(=O)O)NC(=O)[C@@H]2CCCN2C1=O` [[Glu7]GpTx-1(1-34)] (H-DCLGFMEKCIPDNDKCCRPNLVCSRTHKWCKYVF-NH2; disulfide 2-17, 9-23, 16-30) gave an IC50 [5] of 880 nM, an IC50 [1] of 98 nM and an IC50 [2] of over 10 µM. The IC50 ([3]; use-dependent block, hNav1.3) was 1680 nM and the IC50 ([4]; use-dependent block, hNav1.5) was 19.1 µM.
Work on `CC[C@H](C)[C@@H]1NC(=O)[C@@H]2CSSC[C@@H]3NC(=O)[C@H](C(C)C)NC(=O)[C@H](CC(C)C)NC(=O)[C@H](CC(N)=O)NC(=O)[C@@H]4CCCN4C(=O)[C@H](CCCNC(=N)N)NC(=O)[C@H](CSSC[C@H](NC(=O)[C@@H](N)CC(=O)O)C(=O)N[C@@H](CC(C)C)C(=O)NCC(=O)N[C@@H](Cc4ccccc4)C(=O)N[C@@H](Cc4ccccn4)C(=O)N[C@@H](CCCNC(=N)N)C(=O)N[C@@H](CCCCN)C(=O)N2)NC(=O)[C@H](CSSC[C@@H](C(=O)N[C@@H](CCCCN)C(=O)N[C@@H](Cc2ccc(O)cc2)C(=O)N[C@H](C(=O)N[C@@H](Cc2ccccc2)C(N)=O)C(C)C)NC(=O)[C@H](Cc2c[nH]c4ccccc24)NC(=O)[C@H](CCCCN)NC(=O)[C@H](Cc2c[nH]cn2)NC(=O)[C@H]([C@@H](C)O)NC(=O)[C@H](CCCNC(=N)N)NC(=O)[C@H](CO)NC3=O)NC(=O)[C@H](CCCCN)NC(=O)[C@H](CC(=O)O)NC(=O)[C@H](CC(N)=O)NC(=O)[C@H](CC(=O)O)NC(=O)[C@@H]2CCCN2C1=O` [SEQ ID NO: 294] yielded an IC50 [5, 7] of 370 nM, an IC50 [1] of 42 nM and an IC50 [2] of 10 µM. It also gave an IC50 [3, 6] of 90 nM and an IC50 [4, 6] of 9.11 µM.
`CC[C@H](C)[C@@H]1NC(=O)[C@@H]2CSSC[C@@H]3NC(=O)[C@H](C(C)C)NC(=O)[C@H](CC(C)C)NC(=O)[C@H](CC(N)=O)NC(=O)[C@@H]4CCCN4C(=O)[C@H](CCCNC(=N)N)NC(=O)[C@H](CSSC[C@H](NC(=O)[C@@H](N)CC(=O)O)C(=O)N[C@@H](CC(C)C)C(=O)NCC(=O)N[C@@H](Cc4ccccc4)C(=O)N[C@@H](CCSC)C(=O)N[C@@H](CCCCN(C)C)C(=O)N[C@@H](CCCCN)C(=O)N2)NC(=O)[C@H](CSSC[C@@H](C(=O)N[C@@H](CCCCN)C(=O)N[C@@H](Cc2ccc(O)cc2)C(=O)N[C@H](C(=O)N[C@@H](Cc2ccccc2)C(N)=O)C(C)C)NC(=O)[C@H](Cc2c[nH]c4ccccc24)NC(=O)[C@H](CCCCN)NC(=O)[C@H](Cc2c[nH]cn2)NC(=O)[C@H]([C@@H](C)O)NC(=O)[C@H](CCCNC(=N)N)NC(=O)[C@H](CO)NC3=O)NC(=O)[C@H](CCCCN)NC(=O)[C@H](CC(=O)O)NC(=O)[C@H](CC(N)=O)NC(=O)[C@H](CC(=O)O)NC(=O)[C@@H]2CCCN2C1=O` [[K(Me2)7]GpTx-1(1-34)] (H-DCLGFM[Lys(Me2)]KCIPDNDKCCRPNLVCSRTHKWCKYVF-NH2; disulfide 2-17, 9-23, 16-30) was tested, and the IC50 ([5]; IonWorks Quattro, use-dependent block, hNav1.7, read-out: IWQ Use Nav1.7) was 820 nM, the IC50 [1] was 20 nM and the IC50 [2] was over 10 µM. The IC50 ([3]; use-dependent block, hNav1.3) was 270 nM and the IC50 ([4]; use-dependent block, hNav1.5) was 13.3 µM.
Work on `CC[C@H](C)[C@@H]1NC(=O)[C@@H]2CSSC[C@@H]3NC(=O)[C@H](C(C)C)NC(=O)[C@H](CC(C)C)NC(=O)[C@H](CC(N)=O)NC(=O)[C@@H]4CCCN4C(=O)[C@H](CCCNC(=N)N)NC(=O)[C@H](CSSC[C@H](NC(=O)[C@@H](N)CC(=O)O)C(=O)N[C@@H](CC(C)C)C(=O)NCC(=O)N[C@@H](Cc4ccccc4)C(=O)N[C@@H](Cc4c[nH]c5ccccc45)C(=O)N[C@@H](CCCNC(=N)N)C(=O)N[C@@H](CCCCN)C(=O)N2)NC(=O)[C@H](CSSC[C@@H](C(=O)N[C@@H](CCCCN)C(=O)N[C@@H](Cc2ccc(O)cc2)C(=O)N[C@H](C(=O)N[C@@H](Cc2ccccc2)C(N)=O)C(C)C)NC(=O)[C@H](Cc2c[nH]c4ccccc24)NC(=O)[C@H](CCCCN)NC(=O)[C@H](Cc2cnc[nH]2)NC(=O)[C@H]([C@@H](C)O)NC(=O)[C@H](CCCNC(=N)N)NC(=O)[C@H](CO)NC3=O)NC(=O)[C@H](CCCCN)NC(=O)[C@H](CC(=O)O)NC(=O)[C@H](CC(N)=O)NC(=O)[C@H](CC(=O)O)NC(=O)[C@@H]2CCCN2C1=O` [SEQ ID NO: 170] (H-DCLGFWRKCIPDNDKCCRPNLVCSRTHKWCKYVF-NH2; disulfide 2-17, 9-23, 16-30) yielded an IC50 [5] of 13 nM, an IC50 [1] of 22 nM and an IC50 [2] of 3.67 µM. It also gave an IC50 [3, 6] of 2 nM and an IC50 [4, 6] of 3.58 µM.
